What was measured:
purple nutsedge = test: Test B pre/postemergence purple nutsedge; type: in vivo, Cyperus rotundus
How it was run: (§1)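 Herbicidal effect was estimated by eye on a ten-point control scale after plants spent twelve to sixteen days in a greenhouse following soil or foliar treatment. Foliar sprays targeted plants at one to four leaves; all doses were formulated in a non-phytotoxic solvent with surfactant.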

velvetleaf = test: Test B pre/postemergence velvetleaf; type: in vivo, Abutilon theophrasti
How it was run: as §1

morningglory = test: Test B pre/postemergence morningglory; type: in vivo, Ipomoea hederacea
How it was run: as §1

wheat = test: Test B pre/postemergence wheat; type: in vivo, Triticum aestivum
How it was run: as §1

giant foxtail = test: Test B pre/postemergence giant foxtail; type: in vivo, Setaria faberii
How it was run: as §1

pigweed = test: Test B pre/postemergence pigweed; type: in vivo, Amaranthus retroflexus
How it was run: as §1

soybean = test: Test B pre/postemergence soybean; type: in vivo, Glycine max
How it was run: as §1

blackgrass = test: Test B pre/postemergence blackgrass; type: in vivo, Alopecurus myosuroides
How it was run: as §1

corn = test: Test B pre/postemergence corn; type: in vivo, Zea mays
How it was run: as §1

wild oat = test: Test B pre/postemergence wild oat; type: in vivo, Avena fatua
How it was run: as §1

bedstraw = test: Test B pre/postemergence bedstraw; type: in vivo, Galium aparine
How it was run: as §1

sugar beet = test: Test B pre/postemergence sugar beet; type: in vivo, Beta vulgaris
How it was run: as §1

surinam grass = test: Test B pre/postemergence surinam grass; type: in vivo, Brachiaria decumbens
How it was run: as §1

rape = test: Test B pre/postemergence rape; type: in vivo, Brassica napus
How it was run: as §1

crabgrass = test: Test B pre/postemergence crabgrass; type: in vivo, Digitaria sanguinalis
How it was run: as §1

cocklebur = test: Test B pre/postemergence cocklebur; type: in vivo, Xanthium strumarium
How it was run: as §1

[1] = Postemergence, Rate 62 g/ha, scale of 0 to 10, 0 is no effect, 10 is complete control
[2] = Postemergence, Rate 125 g/ha, scale 0 to 10, 0 is no effect, 10 is complete control
[3] = Postemergence, Rate 500 g/ha, scale 0 to 10, 0 is no effect, 10 is complete control
[4] = Preemergence, Rate 125 g/ha, scale 0 to 10, 0 is no effect, 10 is complete control
[5] = Preemergence, Rate 500 g/ha, scale of 0 to 10 where 0 is no effect and 10 is complete control
[6] = Rate 250 g/ha, Postemergence, scale of 0 to 10 where 0 is no effect and 10 is complete control
[7] = Preemergence, Rate 62 g/ha, scale 0 to 10 (0 no effect, 10 complete control)

Cc1noc(C)c1Cn1c(=O)on(C(=O)N(c2ccc(Cl)cc2)C(C)C)c1=O [Compound 540]
7: Plant response rating, Blackgrass (blackgrass; [3]) | Rape plant response rating (rape; [5]) | Plant response rating, Rape (rape; [6])
9: Giant foxtail plant response rating (giant foxtail; [7]) | Giant foxtail plant response rating (giant foxtail; [4]) | Blackgrass plant response rating (blackgrass; [5]) | Plant response rating, Bedstraw (bedstraw; [3]) | Crabgrass plant response rating (crabgrass; [4]) | Cocklebur plant response rating (0 to 10 scale) (cocklebur; Preemergence, Rate 250 g/ha)
1: Plant response rating, Velvetleaf (velvetleaf; [3]) | Soybean plant response rating (soybean; [1]) | Soybean plant response rating (soybean; [2]) | Plant response rating, Soybean (soybean; [3]) | Plant response rating, Soybean (soybean; [6])
10: Giant foxtail plant response rating (0 to 10 scale) (giant foxtail; Preemergence, Rate 250 g/ha) | Giant foxtail plant response rating (giant foxtail; [5]) | Redroot pigweed plant response rating (pigweed; [5]) | Plant response rating, Bedstraw (bedstraw; [6]) | Crabgrass plant response rating (0 to 10 scale) (crabgrass; Preemergence, Rate 250 g/ha) | Crabgrass plant response rating (crabgrass; [5]) | Cocklebur plant response rating (cocklebur; [5])
6: Plant response rating, Morningglory (morningglory; [3]) | Plant response rating, Sugarbeets (sugar beet; [3]) | Plant response rating, Sugarbeets (sugar beet; [6])
3: Plant response rating, Giant foxtail (giant foxtail; [3]) | Redroot pigweed plant response rating (0 to 10 scale) (pigweed; Preemergence, Rate 250 g/ha) | Bedstraw plant response rating (bedstraw; [2]) | Plant response rating, B. signalgrass (surinam grass; [3])
4: Morningglory plant response rating (morningglory; [2]) | Sugarbeets plant response rating (sugar beet; [5])
0: Nutsedge plant response rating (purple nutsedge; [1]) | Nutsedge plant response rating (purple nutsedge; [2]) | Plant response rating, Nutsedge (purple nutsedge; [3]) | Nutsedge plant response rating (purple nutsedge; [4]) | Nutsedge plant response rating (0 to 10 scale) (purple nutsedge; Preemergence, Rate 250 g/ha) | Nutsedge plant response rating (purple nutsedge; [5]) | Plant response rating, Nutsedge (purple nutsedge; [6]) | Velvetleaf plant response rating (velvetleaf; [1]) | Velvetleaf plant response rating (velvetleaf; [2]) | Velvetleaf plant response rating (velvetleaf; [7]) | Velvetleaf plant response rating (velvetleaf; [4]) | Velvetleaf plant response rating (0 to 10 scale) (velvetleaf; Preemergence, Rate 250 g/ha) | Velvetleaf plant response rating (velvetleaf; [5]) | Plant response rating, Velvetleaf (velvetleaf; [6]) | Morningglory plant response rating (morningglory; [7]) | Morningglory plant response rating (morningglory; [4]) | Morningglory plant response rating (0 to 10 scale) (morningglory; Preemergence, Rate 250 g/ha) | Morningglory plant response rating (morningglory; [5]) | Wheat plant response rating (wheat; [1]) | Wheat plant response rating (wheat; [2]) | Plant response rating, Wheat (wheat; [3]) | Wheat plant response rating (wheat; [7]) | Wheat plant response rating (wheat; [4]) | Wheat plant response rating (0 to 10 scale) (wheat; Preemergence, Rate 250 g/ha) | Wheat plant response rating (wheat; [5]) | Plant response rating, Wheat (wheat; [6]) | Giant foxtail plant response rating (giant foxtail; [1]) | Giant foxtail plant response rating (giant foxtail; [2]) | Plant response rating, Giant foxtail (giant foxtail; [6]) | Redroot pigweed plant response rating (pigweed; [1]) | Redroot pigweed plant response rating (pigweed; [2]) | Redroot pigweed plant response rating (pigweed; [7]) | Redroot pigweed plant response rating (pigweed; [4]) | Soybean plant response rating (soybean; [7]) | Soybean plant response rating (soybean; [4]) | Soybean plant response rating (0 to 10 scale) (soybean; Preemergence, Rate 250 g/ha) | Soybean plant response rating (soybean; [5]) | Blackgrass plant response rating (blackgrass; [1]) | Blackgrass plant response rating (blackgrass; [2]) | Blackgrass plant response rating (blackgrass; [7]) | Blackgrass plant response rating (blackgrass; [4]) | Blackgrass plant response rating (0 to 10 scale) (blackgrass; Preemergence, Rate 250 g/ha) | Corn plant response rating (corn; [1]) | Corn plant response rating (corn; [2]) | Plant response rating, Corn (corn; [3]) | Corn plant response rating (corn; [7]) | Corn plant response rating (corn; [4]) | Corn plant response rating (0 to 10 scale) (corn; Preemergence, Rate 250 g/ha) | Plant response rating, Corn (corn; [6]) | Wild oats plant response rating (wild oat; [1]) | Wild oats plant response rating (wild oat; [2]) | Wild oats plant response rating (wild oat; [7]) | Plant response rating, Wild oats (wild oat; [6]) | Bedstraw plant response rating (bedstraw; [1]) | Bedstraw plant response rating (bedstraw; [7]) | Bedstraw plant response rating (bedstraw; [4]) | Bedstraw plant response rating (0 to 10 scale) (bedstraw; Preemergence, Rate 250 g/ha) | Bedstraw plant response rating (bedstraw; [5]) | Sugarbeets plant response rating (sugar beet; [1]) | Sugarbeets plant response rating (sugar beet; [7]) | Sugarbeets plant response rating (sugar beet; [4]) | Sugarbeets plant response rating (0 to 10 scale) (sugar beet; Preemergence, Rate 250 g/ha) | B. signalgrass plant response rating (surinam grass; [1]) | B. signalgrass plant response rating (surinam grass; [2]) | B. signalgrass plant response rating (surinam grass; [7]) | B. signalgrass plant response rating (surinam grass; [4]) | B. signalgrass plant response rating (0 to 10 scale, 0 is no effect, 10 is complete control) (surinam grass; Preemergence, Rate 250 g/ha) | Plant response rating, B. signalgrass (surinam grass; [6]) | Rape plant response rating (rape; [1]) | Rape plant response rating (rape; [7]) | Rape plant response rating (rape; [4]) | Cocklebur plant response rating (cocklebur; [1]) | Cocklebur plant response rating (cocklebur; [2]) | Plant response rating, Cocklebur (cocklebur; [3]) | Cocklebur plant response rating (cocklebur; [7]) | Cocklebur plant response rating (cocklebur; [4]) | Plant response rating, Cocklebur (cocklebur; [6])
8: Wild oats plant response rating (wild oat; [5]) | B. signalgrass plant response rating (surinam grass; [5]) | Plant response rating, Crabgrass (crabgrass; [3]) | Crabgrass plant response rating (crabgrass; [7])
2: Morningglory plant response rating (morningglory; [1]) | Plant response rating, Redroot pigweed (pigweed; [3]) | Plant response rating, Redroot pigweed (pigweed; [6]) | Plant response rating, Blackgrass (blackgrass; [6]) | Corn plant response rating (corn; [5]) | Plant response rating, Wild oats (wild oat; [3]) | Wild oats plant response rating (wild oat; [4]) | Wild oats plant response rating (0 to 10 scale) (wild oat; Preemergence, Rate 250 g/ha) | Sugarbeets plant response rating (sugar beet; [2]) | Rape plant response rating (rape; [2]) | Rape plant response rating (0 to 10 scale) (rape; Preemergence, Rate 250 g/ha)
5: Plant response rating, Morningglory (morningglory; [6]) | Crabgrass plant response rating (crabgrass; [1]) | Crabgrass plant response rating (crabgrass; [2]) | Plant response rating, Crabgrass (crabgrass; [6])
